Laboratory results reported in patent US20230123334A1, “AMINO LIPID COMPOUND, PREPARATION METHOD THEREFOR, AND APPLICATION THEREOF” (SHENZHEN SHENXIN BIOTECHNOLOGY CO., LTD., priority 2020, published 2023).

Columns and labels:
[1] = test system: HEK293 cells; experiment: Preliminary screening as DNA vectors, GFP transfection of HEK293 cells; assay type: cell-based; settings: HEK293 cells; lipid/DOPE liposome with 75 ng plasmid DNA (psin-EGFP-IRES-Puro); number of cells expressing GFP divided by total number of nuclei (Hoechst)
Outline: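 Lipid + DOPE liposomes (NaOAc, pH 5.6) complexed w/ 75 ng psin-EGFP-IRES-Puro, 30 min RT; added to 3-5×10^4 HEK293/well, 37° C. Hoechst 0.2 μg/mL at 20-24 h, imaged after further 20-24 h. Efficiency = GFP+ cells / total nuclei.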

[2] = test system: HEK293 cells; experiment: Preliminary screening as mRNA vectors, EGFP mRNA transfection of HEK293 cells; assay type: cell-based; settings: HEK293 cells, 96-well plates, EGFP mRNA 50 ng per well; percentage of GFP fluorescent cells relative to total number of cells (Hoechst)
Outline: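 Each well of HEK293 cells received 50 ng of EGFP mRNA. Efficiency was expressed as percent GFP-expressing cells over Hoechst-defined total cell number.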

SMILES | Absolute DNA transfection efficiency in HEK293 cells [1] | Absolute mRNA transfection efficiency in HEK293 cells [2]
CCCCCCCCCCSc1nc(NCCN2CCCCC2)nc(SCCCCCCCCCC)n1 [Compound S10S10D4] | 5.5% | 2.5%
CCCCCCCCCCCCCCCCSc1nc(NCCN(CC)CC)nc(SCCCCCCCCCCCC)n1 [Compound S12S16D7] | 0.7% | 0.0%
CCCCCCCCCCCCNc1nc(NCCCCCC)nc(NCCCN(C)C)n1 [Compound N6N12D6] | 0.3% | 0.1%
CCCCCCCCCCCCCCCCSc1nc(NCCCN2CCOCC2)nc(SCCCCCCCCCCCC)n1 [Compound S12S16D8] | 0.2% | 0.0%
CCCCCCCCCCCCCNc1nc(NCCCCCCCCCCCC)nc(NCC2CCN(C)CC2)n1 [Compound N12N13D10] | 0.2% | 0.2%
CCCCCCCCCCCCCCCCNc1nc(NCCCN(C)C)nc(N(CCCCCCCCCCCC)CCCCCCCCCCCC)n1 [N16^2N12D6] | 0.5% | 0.0%
CCCCCCCCCCCCCCCCCCNc1nc(NCCCCCCCCC)nc(NCCN(CC)CC)n1 [Compound N9N18D7] | 3.0% | 0.6%
CCCCCCCCCCCCCCCCNc1nc(NCCCCCCCCCCCCC)nc(NCCN2CCCC2)n1 [Compound N13N16D3] | 0.4% | 1.6%
CCCCCCCNc1nc(NCCCCCCC)nc(NCC2CCN(C)CC2)n1 [Compound N7N7D10] | 0.1% | 0.0%
CCCCCCCCCCCCCCCCNc1nc(NCCCCCCCCCCCCCCCC)nc(NCCN2CCCCC2)n1 [Compound N16N16D4] | 0.9% | 0.0%
CCCCCCCCCCCCCNc1nc(NCCCCCCCC)nc(NCCCN2CCN(C)CC2)n1 [Compound N8N13D9] | 1.0% | 0.0%
CCCCCCCCCCCCCCCNc1nc(NCCCN2CCN(C)CC2)nc(N(CCCCCCCCCCCC)CCCCCCCCCCCC)n1 [N15^2N12D9] | 1.7% | 0.0%
CCCCCCCCCCCCCCCSc1nc(NCCN2CCCC2)nc(SCCCCCCCC)n1 [Compound S8S15D3] | 21.8% | 0.9%
CCCCCCCCCCCCN(CCCCCCCCCCCC)c1nc(NCCCCCCCCC)nc(NCCCN2CCN(C)CC2)n1 [N9^2N12D9] | 0.0% | 3.9%
CCCCCCCCCCCCCCCCCCNc1nc(NCCCCCCCCCCCCCCC)nc(NCCN2CCN(C)CC2)n1 [Compound N15N18D5] | 0.0% | 0.0%
CCCCCCCCCCCCCNc1nc(NCCCCCCCCCCCCC)nc(NCCN2CCCCC2)n1 [Compound N13N13D4] | 1.5% | 3.3%
CCCCCCCCCCCCCNc1nc(NCCCCCCCC)nc(NCCCN2CCOCC2)n1 [Compound N8N13D8] | 0.0% | 0.2%
CCCCCCCCCCCCCCCCNc1nc(NCCCCCCCCCCCCCCC)nc(NCCCN(C)C)n1 [Compound N15N16D6] | 0.8% | 1.3%
CCCCCCCCCCCCCCSc1nc(NCCCN2CCN(C)CC2)nc(SCCCCCCCCCCCCCC)n1 [Compound S14S14D9] | 0.0% | 0.0%
CCCCCCCCCCCCCCCCCCNc1nc(NCCN(CC)CC)nc(N(CCCCCCCCCCCC)CCCCCCCCCCCC)n1 [N18^2N12D7] | 0.2% | 0.7%
CCCCCCCCCCCCCCCCSc1nc(NCCN2CCOCC2)nc(SCCCCCCCCCCC)n1 [Compound S11S16D2] | 0.0% | 0.1%
CCCCCCCCCCCCCCCCSc1nc(NCCN2CCCCC2)nc(SCCCCCCCCCCCCCCC)n1 [Compound S15S16D4] | 2.0% | 3.2%
CCCCCCCCCCCCCCSc1nc(NCCCN2CCN(C)CC2)nc(SCCCCCCCCCCCC)n1 [Compound S12S14D9] | 0.8% | 2.5%
CCCCCCCCCCCCCCCCCCNc1nc(NCCCCCCCCCCCC)nc(NCCN(C)C)n1 [Compound N12N18D1] | 1.4% | 9.4%
